In patent publication US20240174718A1, “RYANODINE RECEPTOR INHIBITOR COMPOUNDS AND METHODS RELATING THERETO” (Vanderbilt University, priority 2022, published 2024):
Where two headings read alike, the source gives them in different places.

Tests used:
Plasma stability ex vivo = assay type: in vitro ADME; conditions: mouse; murine plasma, 37° C., two hours; read-out: parent compound remaining in plasma
Procedure: (§1) FIGS. 11(A-B) show in vivo pharmacokinetics in mice for a compound of the present invention. […] N=3 mice. Plasma collected serially at 0.167, 0.333. 0.5, 1, 3, and 8 hours post-administration. […] Individual data points (grey) shown alongside mean values with connecting lines.
Plasma stability experiments—Drug-free mouse plasma was preincubated in a 96-well polypropylene plate for 30 minutes on a microplate shaker at 37° C. prior to the addition of ent-B1 (final concentration 1900 ng/mL). Drug was added to individual wells (n=3 per compound), mixed thoroughly, and 50 μL of plasma was removed at 0, 15, 30, 45 60, 90, and 120 minutes to evaluate compound stability in mouse plasma at 37° C. Samples removed at each time point were transferred to a 96-well polypropylene plate containing 300 μL of ice-cold acetonitrile containing internal standard (ent-verticilide-d12; 100 ng/mL). Samples were mixed multiple times with a pipette to ensure precipitation of plasma proteins and the plate was covered with an adhesive film to prevent solvent evaporation. […] Peak area ratios of the analyte and internal standard for each sample were analyzed by liquid chromatography coupled to tandem mass spectrometry (LC-MS/MS) and normalized to the area ratio for time point 0 (baseline) to calculate the percent of ent-B1 remaining at each time point. […]

[1] = In vivo pharmacokinetic study after intraperitoneal administration; parameters: species or system mouse; conditions: for half-life: 3 mg/kg
Procedure: as §1
In vivo pharmacokinetic study—The pharmacokinetic study was carried out by a contract research organization, Pharmaron, Inc. Mice were housed with free access to food and water. All protocols and procedures were compliant with Animal care and Use Application approved by the Institution Animal Care and Use Committee of Pharmaron, Inc., (protocol #PH-DMPK-VUMC-22-003) following the guidance of the Association for Assessment and Accreditation of Laboratory Animal Care (AAALAC). An ent-B1 dose of 3 mg/kg (drug/body weight) was used. Three male CDI mice, age 6-8 weeks, were selected for the study. Mice were injected intraperitoneally with ent-B1 dissolved in solution containing 10% Tween 20, 10% DMSO, 40% water, and 40% PEG-400 (v/v, 5 mL/kg), with a final concentration of 0.6 mg/mL. 30 μL of blood was collected from each animal at 10, 20, 30, 60, 180, and 480 minutes following drug administration and centrifuged at 5000×g, 4° C. for 5 minutes to obtain plasma. The samples were stored at −75±15° C. until analysis.
LC-MS/MS analysis of ent-B1—LC-MS/MS with electronspray ionization in the positive ion mode setting was used to detect ent-B1 followed by multiple reaction monitoring of precursor and product ions as follows: ent-B1 (mass-to-charge ratio [m/z] 640.18 to 214.00). Mouse plasma was quantified using nine standards (0.5-1000 ng/ml) and four quality control levels (1, 2, 50, 800 ng/ml) prepared independently of those used for the standard curve. 20 μL of standards, quality control samples, and unknown samples (10 μL plasma and 10 μL blank solution) were added to 200 μL acetonitrile containing internal standard (dexamethasone; [m/z] 393.40 to 373.30) for protein precipitation. The samples were vortexed for 30 seconds, centrifuged for 15 minutes at 4000 rpm and […], and the supernatant was diluted five times with water. Samples were then loaded into SIL-30AC autosampler and 10 μL was injected into a Shimadzu LC-30AD Series HPLC coupled to an AB Sciex Triple Quad 5500 mass spectrometer. Analytes were separated on a Raptor Biphenyl column (50×2.1 mm, 2.7 um) using a 95:5 (v/v) mobile phase mixture of 0.1% formic acid in water (mobile phase A) and 0.1% formic acid in acetonitrile (mobile phase B) at the flow rate of 0.6 ml/min. The gradient for mobile phase B was increased to 95% over 1.4 minutes with a total run time of 2.5 minutes for each sample. All quality controls and standards met the following acceptance criteria 1) standard curve of at least five standards are within 15% of their nominal concentrations and at least 50% at each quality control level (low, medium, and high) were within 15% of their nominal concentrations.
Pharmacokinetic analysis—Plasma concentrations of ent-B1 at each time point were imported to Phoenix WinNonlin® 8.0 software (Certara USA, Inc., Princeton, NJ). Plasma concentration time profiles for individual animals were analyzed by noncompartmental analysis using model 200 (Plasma; Single Extravascular Dose; Linear Log Trapezoidal Method) to approximate the elimination rate constant (ke), half-life (T1/2), maximum observed plasma concentration (Cmax), time to maximum observed plasma concentration (Tmax), the area under the plasma concentration-time curve from zero to infinity (AUCinf).

[2] = male, mouse, plasma, ip, 3 mg/kg intraperitoneal, CD1 mice

Compound: CCCCC[C@@H]1OC(=O)[C@@H](C)N(C)C(=O)[C@H](CCCCC)OC(=O)[C@@H](C)N(C)C(=O)[C@H](CCCCC)OC(=O)[C@@H](C)N(C)C1=O (single isomer, unassigned) [ent-B1]
- remaining at 2 h, 1900 ng/mL (Plasma stability ex vivo): ~95%
- time of peak plasma concentration after i.p. injection ([1]; 3 mg/kg i.p.): 10 min
- clinical observation during PK experiment ([1]; 3 mg/kg i.p., CD1 mice): no abnormality
- ke (elimination rate constant) ([1]; 3 mg/kg intraperitoneal, CD1 mice): 0.932 ± 0.139 h⁻¹
- half-life ([1]; male, CD1, mouse, plasma, ip, 3 mg/kg i.p., mice, read-out: mean elimination half-life (t1/2)): 45.4 min
- half-life ([1]; male, CD1, mouse, plasma, ip, 3 mg/kg intraperitoneal, CD1 mice, read-out: T1/2 (elimination half-life) (converted)): 45.4 ± 7.38 min
- Cmax ([1]; male, CD1, mouse, plasma, ip, 3 mg/kg i.p., read-out: mean peak plasma concentration (Cmax)): 2300 nM
- Cmax ([1]; male, mouse, ip, 3 mg/kg intraperitoneal, CD1 mice, plasma, read-out: Cmax): 1460 ng/mL
- AUC(0-inf) [1, 2]: 1020 ± 184 ng·h/mL
- CL/F [1, 2]: 50.2 mL/min/kg
- Tmax [1, 2]: 10 min
- Vd/F ([1]; male, mouse, plasma, ip, 3 mg/kg intraperitoneal, CD1 mice, read-out: Vz/F): 3.32 ± 1 L/kg
- peak plasma concentration in vivo relative to IC50 in cardiomyocytes ([1]; mouse, in vivo): more than 10 fold
